Reference: patent EP1167342A1, “Novel substituted nitrocatechols, their use in the treatment of some central and peripheral nervous system disorders and pharmaceutical compositions containing them” (Portela & Ca., S.A., priority 2000, dated 2002)

Experiments:
Brain COMT = experiment: Ex vivo COMT activity in mouse brain homogenates after administration of test compound by gastric tube; set-up: species or system NMRI mice; settings: for Brain COMT (% of control) 1h / Brain COMT (% of control) 6h: homogenates of mice brain, dose not given, means±S.E.M. of 4-8 experiments; for Brain COMT (% of control) 1h: 1 h after administration by gastric tube; for Brain COMT (% of control) 6h: 6 h after administration by gastric tube
COMT = target: T1, COMT (Homo sapiens, UniProt P21964); experiment: COMT activity in intact SK-N-SH cells (methylation of adrenaline to metanephrine, HPLC with electrochemical detection); assay type: cell-based; settings: concentration of test compound 100 nM, means ±SEM of n=4-8
T1 construct: COMT activity was evaluated in cell monolayers by the ability to methylate adrenaline; host or cells: SK-N-SH
T1 sequence (P21964 1-271): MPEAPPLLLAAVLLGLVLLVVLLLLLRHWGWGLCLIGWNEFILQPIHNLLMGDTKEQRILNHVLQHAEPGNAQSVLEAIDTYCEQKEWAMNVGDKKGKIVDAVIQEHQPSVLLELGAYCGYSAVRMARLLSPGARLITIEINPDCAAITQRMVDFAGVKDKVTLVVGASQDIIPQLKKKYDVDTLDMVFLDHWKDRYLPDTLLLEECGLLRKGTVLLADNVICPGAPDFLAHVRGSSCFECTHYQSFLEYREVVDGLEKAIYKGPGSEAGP

Liver COMT = experiment: Ex vivo COMT activity in mouse liver homogenates after administration of test compound by gastric tube; set-up: species or system NMRI mice; settings: for Liver COMT (% of control) 1h / Liver COMT (% of control) 6h: homogenates of mice liver, dose not given, means±S.E.M. of 4-8 experiments; for Liver COMT (% of control) 1h: 1 h after administration by gastric tube; for Liver COMT (% of control) 6h: 6 h after administration by gastric tube; for potency upon liver COMT compared with brain COMT: mice, after oral administration, statement in words

How did the “Brain COMT (% of control) 1h” value (Brain COMT) turn out when `Cl.O=C(CCN1CCCCCCC1)c1cc(O)c(O)c([N+](=O)[O-])c1` [Compound 16, 3-Azocan-1-yl-1-(3,4-dihydroxy-5-nitro-phenyl)-propan-1-one hydrochloride] was run?
The value was 25.0±13.0 % of control.

And the “Brain COMT (% of control) 6h” value (Brain COMT)?
Its value is 95.0±12.0 % of control.

What about the “COMT activity (% of control)” value (COMT) of the same molecule?
The value was 3.2±0.2 % of control.

And the “Liver COMT (% of control) 1h” value (Liver COMT)?
Its value is 22.1±3.4 % of control.

And the “Liver COMT (% of control) 6h” value (Liver COMT)?
Its value is 71.7±21.6 % of control.

And the “potency upon liver COMT compared with brain COMT” value (Liver COMT)?
Its value is “equally potent in inhibiting liver and brain COMT activity”.

`CCOC(=O)C1CCN(CCC(=O)c2cc(O)c(O)c([N+](=O)[O-])c2)CC1.Cl` [Compound 17, 1-[3-(3,4-Dihydroxy-5-nitro-phenyl)-3-oxo-propyl]-piperidine-4-carboxylic acid ethyl ester hydrochloride] was tested. Which “Brain COMT (% of control) 1h” value (Brain COMT) did it give?
The value was 96.0±5.0 % of control.

What about the “Brain COMT (% of control) 6h” value (Brain COMT) of the same molecule?
The value was 109.0±14.0 % of control.

And the “COMT activity (% of control)” value (COMT)?
Its value is 7.7±0.5 % of control.

What about the “Liver COMT (% of control) 1h” value (Liver COMT) of the same molecule?
The value was 36.8±2.3 % of control.

And the “Liver COMT (% of control) 6h” value (Liver COMT)?
The value was 69.6±8.9 % of control.

`Cl.Cl.O=C(CCN1CCN(c2cccc(C(F)(F)F)c2)CC1)c1cc(O)c(O)c([N+](=O)[O-])c1` [Compound 18, 1-(3,4-Dihydroxy-5-nitro-phenyl)-3-[4-(3-trifluoromethyl-phenyl)-piperazin-1-yl]-propan-1-one dihydrochloride] was tested. Which “activity in the brain” value (Brain COMT; conclusion, statement in words) did it give?
The value was “limited activity in the brain”.

What about the “Brain COMT (% of control) 1h” value (Brain COMT) of the same molecule?
The value was 86.0±14.0 % of control.

And the “Brain COMT (% of control) 6h” value (Brain COMT)?
The value was 86.0±11.0 % of control.

What about the “COMT activity (% of control)” value (COMT) of the same molecule?
Its value is 4.2±0.2 % of control.

What about the “Liver COMT (% of control) 1h” value (Liver COMT) of the same molecule?
Its value is 18.5±6.8 % of control.

What about the “Liver COMT (% of control) 6h” value (Liver COMT) of the same molecule?
The value was 26.3±3.9 % of control.

What about the “potency upon liver COMT compared with brain COMT” value (Liver COMT) of the same molecule?
Its value is “much more potent upon liver COMT than brain COMT”.

How did the “Brain COMT (% of control) 1h” value (Brain COMT) turn out when `Cl.O=C(CCN1CCSCC1)c1cc(O)c(O)c([N+](=O)[O-])c1` [Compound 19, 1-(3,4-Dihydroxy-5-nitro-phenyl)-3-thiomorpholin-4-yl-propan-1-one hydrochloride] was run?
Its value is 93.0±19.0 % of control.

What about the “Brain COMT (% of control) 6h” value (Brain COMT) of the same molecule?
The value was 107.0±3.0 % of control.

What about the “COMT activity (% of control)” value (COMT) of the same molecule?
Its value is 6.8±2.3 % of control.

What about the “Liver COMT (% of control) 1h” value (Liver COMT) of the same molecule?
The value was 30.3±4.0 % of control.

What about the “Liver COMT (% of control) 6h” value (Liver COMT) of the same molecule?
The value was 57.9±8.6 % of control.

For `Cl.O=C(CCN1CCCCCC1)c1cc(O)c(O)c([N+](=O)[O-])c1` [Compound 20, 3-Azepan-1-yl-1-(3,4-dihydroxy-5-nitro-phenyl)-propan-1-one hydrochloride], which “Brain COMT (% of control) 1h” value (Brain COMT) is on record?
The value was 106.0±9.0 % of control.

What about the “Brain COMT (% of control) 6h” value (Brain COMT) of the same molecule?
Its value is 125.0±5.0 % of control.

What about the “COMT activity (% of control)” value (COMT) of the same molecule?
The value was 3.6±0.3 % of control.

What about the “Liver COMT (% of control) 1h” value (Liver COMT) of the same molecule?
Its value is 39.0±2.0 % of control.

What about the “Liver COMT (% of control) 6h” value (Liver COMT) of the same molecule?
Its value is 64.0±12.0 % of control.

Which “Brain COMT (% of control) 1h” value (Brain COMT) does the source give for `Cl.O=C(CN1CCc2ccccc2C1)c1cc(O)c(O)c([N+](=O)[O-])c1` [Compound 21, 2-(3,4-Dihydro-1H-isoquinolin-2-yl)-1-(3,4-dihydroxy-5-nitro-phenyl)-ethanone hydrochloride] here?
The value was 96.0±8.0 % of control.

What about the “Brain COMT (% of control) 6h” value (Brain COMT) of the same molecule?
Its value is 104.0±17.0 % of control.

What about the “COMT activity (% of control)” value (COMT) of the same molecule?
Its value is 0.9±0.6 % of control.

What about the “Liver COMT (% of control) 1h” value (Liver COMT) of the same molecule?
The value was 55.1±5.0 % of control.

What about the “Liver COMT (% of control) 6h” value (Liver COMT) of the same molecule?
The value was 77.5±18.0 % of control.

With `Cl.Cl.O=C(CCN1CCN(c2ccccc2Cl)CC1)c1cc(O)c(O)c([N+](=O)[O-])c1` [Compound 22, 3-[4-(2-Chloro-phenyl)-piperazin-1-yl]-1-(3,4-dihydroxy-5-nitro-phenyl)-propan-1-one dihydrochloride] as the molecule, how does the “Brain COMT (% of control) 1h” value (Brain COMT) read?
Its value is 94.0±3.0 % of control.

What about the “Brain COMT (% of control) 6h” value (Brain COMT) of the same molecule?
Its value is 96.0±18.0 % of control.

What about the “COMT activity (% of control)” value (COMT) of the same molecule?
The value was 0.0±0.0 % of control.

What about the “Liver COMT (% of control) 1h” value (Liver COMT) of the same molecule?
Its value is 54.2±7.5 % of control.

What about the “Liver COMT (% of control) 6h” value (Liver COMT) of the same molecule?
The value was 71.7±0.4 % of control.

Which “Brain COMT (% of control) 1h” value (Brain COMT) does the source give for `Cl.Cl.Cl.Cl.O=C(CCN1CCN(c2ncccn2)CC1)c1cc(O)c(O)c([N+](=O)[O-])c1` [Compound 23, 1-(3,4-Dihydroxy-5-nitro-phenyl)-3-(4-pyrimidin-2-yl-piperazin-1-yl)-propan-1-one tetrahydrochloride] here?
The value was 87.0±6.0 % of control.

And the “Brain COMT (% of control) 6h” value (Brain COMT)?
The value was 123.0±12.0 % of control.

And the “COMT activity (% of control)” value (COMT)?
Its value is 4.4±0.9 % of control.

What about the “Liver COMT (% of control) 1h” value (Liver COMT) of the same molecule?
The value was 30.0±2.5 % of control.

And the “Liver COMT (% of control) 6h” value (Liver COMT)?
The value was 56.3±6.0 % of control.

Which results are given for `Cl.O=C(CCN1CCC(Cc2ccccc2)CC1)c1cc(O)c(O)c([N+](=O)[O-])c1` [Compound 24, 3-(4-Benzyl-piperidin-1-yl)-1-(3,4-dihydroxy-5-nitro-phenyl)-propan-1-one hydrochloride]?
Brain COMT (% of control) 1h (Brain COMT): 33.0±8.0 % of control; Brain COMT (% of control) 6h (Brain COMT): 98.0±2.0 % of control; COMT activity (% of control) (COMT): 0.0±0.0 % of control; Liver COMT (% of control) 1h (Liver COMT): 16.5±1.5 % of control; Liver COMT (% of control) 6h (Liver COMT): 37.7±3.9 % of control

With `O=C(COc1cccc2ccccc12)c1cc(O)c(O)c([N+](=O)[O-])c1` [Compound 25, 1-(3,4-Dihydroxy-5-nitro-phenyl)-2-(naphthalen-1-yloxy)-ethanone] as the molecule, how does the “Brain COMT (% of control) 1h” value (Brain COMT) read?
Its value is 62.8±5.1 % of control.

And the “Brain COMT (% of control) 6h” value (Brain COMT)?
The value was 92.4±10.8 % of control.

What about the “COMT activity (% of control)” value (COMT) of the same molecule?
Its value is 0.0±0.0 % of control.

And the “Liver COMT (% of control) 1h” value (Liver COMT)?
The value was 13.7±1.9 % of control.

What about the “Liver COMT (% of control) 6h” value (Liver COMT) of the same molecule?
Its value is 31.1±5.5 % of control.

How did the “Brain COMT (% of control) 1h” value (Brain COMT) turn out when `CC1CCCCN1CCC(=O)c1cc(O)c(O)c([N+](=O)[O-])c1.Cl` (stereo not shown) [Compound 26, 1-(3,4-Dihydroxy-5-nitro-phenyl)-3-(2-methyl-piperidin-1-yl)-propan-1-one hydrochloride] was run?
Its value is 69.8±3.2 % of control.

And the “Brain COMT (% of control) 6h” value (Brain COMT)?
The value was 89.6±13.4 % of control.

What about the “COMT activity (% of control)” value (COMT) of the same molecule?
The value was 4.8±0.4 % of control.

What about the “Liver COMT (% of control) 1h” value (Liver COMT) of the same molecule?
Its value is 18.3±2.9 % of control.

What about the “Liver COMT (% of control) 6h” value (Liver COMT) of the same molecule?
The value was 55.2±4.7 % of control.
